Reference: ChEMBL document CHEMBL1139037, “New Gly-Pro-Glu (GPE) analogues: expedite solid-phase synthesis and biological activity” (Bioorg Med Chem Lett, 2006)
Non-standard residues stand in square brackets, D forms with d. Residues, ends and D or L forms follow the SMILES beside them. Oic = O=C(O)[C@@H]1C[C@@H]2CCCC[C@@H]2N1; Hyp = O=C(O)[C@@H]1C[C@@H](O)CN1; Pip = O=C(O)[C@@H]1CCCCN1; Ac6c = NC1(C(=O)O)CCCCC1; Nle = CCCC[C@H](N)C(=O)O; Aze = O=C(O)[C@@H]1CCN1; Ac3c = NC1(C(=O)O)CC1

biological target: Glutamate NMDA receptor; assay: Displacement of L-[3H]glutamate from glutamate receptor in rat brain synaptic membrane; assay type: cell membranes; details: not given

| Structure (SMILES) | Ki [µM] |
| --- | --- |
| NCC(=O)NC1(C(=O)N[C@@H](CCC(=O)O)C(=O)O)CCCCC1 (H-Gly-[Ac6c]-Glu-OH) | > 100 |
| NCC(=O)N1[C@H](C(=O)N[C@@H](CCC(=O)O)C(=O)O)C[C@@H]2CCCC[C@@H]21 (H-Gly-[Oic]-Glu-OH) | 22.4 |
| NCC(=O)N1C[C@@H](N)C[C@H]1C(=O)N[C@@H](CCC(=O)O)C(=O)O | 15.5 |
| C[C@H](N)C(=O)N1CCC[C@H]1C(=O)N[C@@H](CCC(=O)O)C(=O)O | 2.66 |
| C[C@@H](N)C(=O)N1CCC[C@H]1C(=O)N[C@@H](CCC(=O)O)C(=O)O | 5.4 |
| CC[C@H](C)[C@H](N)C(=O)N1CCC[C@H]1C(=O)N[C@@H](CCC(=O)O)C(=O)O (H-Ile-Pro-Glu-OH) | > 100 |
| NCC(=O)NC1(C(=O)N[C@@H](CCC(=O)O)C(=O)O)CC1 (H-Gly-[Ac3c]-Glu-OH) | > 100 |
| NCC(=O)N1C[C@H](O)C[C@H]1C(=O)N[C@@H](CCC(=O)O)C(=O)O (H-Gly-[Hyp]-Glu-OH) | 9.24 |
| NCC(=O)N1CC[C@H]1C(=O)N[C@@H](CCC(=O)O)C(=O)O (H-Gly-[Aze]-Glu-OH) | > 100 |
| NCC(=O)N1CCCC[C@H]1C(=O)N[C@@H](CCC(=O)O)C(=O)O (H-Gly-[Pip]-Glu-OH) | 2.39 |
| NCC(=O)N1C2CCC1(C(=O)N[C@@H](CCC(=O)O)C(=O)O)CC2 | 0.48 |
| CCCC[C@H](N)C(=O)N1CCC[C@H]1C(=O)N[C@@H](CCC(=O)O)C(=O)O (H-[Nle]-Pro-Glu-OH) | 19.5 |
| N[C@@H](Cc1ccccc1)C(=O)N1CCC[C@H]1C(=O)N[C@@H](CCC(=O)O)C(=O)O (H-Phe-Pro-Glu-OH) | 4.85 |
| NCCCC[C@H](N)C(=O)N1CCC[C@H]1C(=O)N[C@@H](CCC(=O)O)C(=O)O (H-Lys-Pro-Glu-OH) | 22 |
| N[C@@H](CC(=O)O)C(=O)N1CCC[C@H]1C(=O)N[C@@H](CCC(=O)O)C(=O)O (H-Asp-Pro-Glu-OH) | 41.3 |

biological target: Glutamate NMDA receptor (Rattus norvegicus) (UniProt P35439+Q00959+Q00960+Q00961+Q62645+Q8VHN2+Q9R1M7); assay: Neuroprotective activity in rat hippocampal neurons at 100 uM; assay type: functional, tissue-based; details: Hippocampus

| Structure (SMILES) | Activity [%] |
| --- | --- |
| NCC(=O)NC1(C(=O)N[C@@H](CCC(=O)O)C(=O)O)CCCCC1 (H-Gly-[Ac6c]-Glu-OH) | 27 |
| NCC(=O)NC1(C(=O)N[C@@H](CCC(=O)O)C(=O)O)CC1 (H-Gly-[Ac3c]-Glu-OH) | 27 |
| NCC(=O)N1CC[C@H]1C(=O)N[C@@H](CCC(=O)O)C(=O)O (H-Gly-[Aze]-Glu-OH) | 27 |
